Test results from article PMC7540527, “Synthesis of Antiviral Perfluoroalkyl Derivatives of Teicoplanin and Vancomycin” (Chemmedchem, 2020).
Counter-ions that a name gives are not always drawn. Like-named read-outs stand apart in the source and are kept apart here.

Columns and labels:
[1] = tested on: human adenovirus type 2 (AdV-2); assay: microbe, parasite or virus in culture; assay type: cell-based; details: Human mastadenovirus C, HEL, read-out: Antiviral EC50 AdV‐2
[2] = in vitro; details: human
[3] = tested on: herpes simplex virus type 1 (HSV-1); assay: microbe, parasite or virus in culture; assay type: cell-based; details: Human alphaherpesvirus 1, HEL, read-out: Antiviral EC50 HSV‐1
[4] = tested on: thymidine-kinase deficient (TK-) mutant of HSV-1; assay: microbe, parasite or virus in culture; assay type: cell-based, herpes simplex virus type 1; details: Human alphaherpesvirus 1, HEL, read-out: Antiviral EC50 HSV‐1/TK−
[5] = tested on: herpes simplex virus type 2 (HSV-2); assay: microbe, parasite or virus in culture; assay type: cell-based; details: Human alphaherpesvirus 2, HEL, read-out: Antiviral EC50 HSV‐2
[6] = tested on: vaccinia virus; assay: microbe, parasite or virus in culture; assay type: cell-based; details: Orthopoxvirus vaccinia, HEL, read-out: Antiviral EC50 Vaccinia
[7] = tested on: influenza A/H1N1 A/Ned/378/05; assay: microbe, parasite or virus in culture; assay type: cell-based, influenza A virus; details: Influenza A virus, H1N1, MDCK
[8] = tested on: influenza A/H3N2 A/Victoria/361/11; assay: microbe, parasite or virus in culture; assay type: cell-based, influenza A virus; details: Influenza A virus, H3N2, MDCK
[9] = tested on: influenza B virus B/Ned/537/05; assay: CPE reduction assay for influenza virus in MDCK cells, influenza B; assay type: cell-based; details: Influenza B virus, MDCK
Method: The CPE reduction assay for influenza virus was described in full detail in previous publications.41 The virus strains were: A/PR/8/34 (A/H1 N1); A/Virginia/ATCC3/2009 (A/H1 N1pdm); A/HK/7/87 (A/H3 N2); B/Ned/537/05; and B/HK/5/72. On day 0, Madin‐Darby canine kidney (MDCK) cells in 96‐well plates were infected with influenza virus at a multiplicity of infection (MOI) of 0.0004 plaque forming units (PFU) per cell. After three days incubation at 35 °C, virus‐induced CPE and compound cytotoxicity were scored by microscopy, after which the data were confirmed by formazan‐based MTS cell viability assay (CellTiter 96® AQueous One Solution Cell Proliferation Assay from Promega). The antiviral effect was expressed as the compound concentration producing 50 % inhibition of the virus‐induced CPE (EC50). Compound cytotoxicity was expressed as the compound concentration causing minimal changes in cell morphology (MCC), and 50 % cytotoxic concentration (CC50) based on MTS assay.42

[10] = tested on: MDCK cells; details: dog
[11] = in vitro; details: dog
[12] = tested on: Reovirus-1; assay: organism not typed; assay type: cell-based; details: Vero
[13] = tested on: Sindbis virus; assay: microbe, parasite or virus in culture; assay type: cell-based; details: Vero
[14] = tested on: Coxsackie virus B4; assay: microbe, parasite or virus in culture; assay type: cell-based; details: Enterovirus B, B4, Vero
[15] = tested on: Punta Toro virus; assay: microbe, parasite or virus in culture; assay type: cell-based; details: Vero
[16] = tested on: Yellow Fever virus (17D); assay: microbe, parasite or virus in culture; assay type: cell-based; details: Vero
[17] = tested on: Zika virus (strain MR766); assay: microbe, parasite or virus in culture; assay type: cell-based; details: Vero
[18] = tested on: Vero cells; details: African green monkey
[19] = in vitro; details: African green monkey
[20] = tested on: Vesicular stomatitis virus; assay: microbe, parasite or virus in culture; assay type: cell-based; details: HeLa, read-out: Antiviral EC50 Vesicular stomatitis virus, Visual CPE score
[21] = tested on: Coxsackie virus B4; assay: microbe, parasite or virus in culture; assay type: cell-based; details: Enterovirus B, B4, HeLa, read-out: Antiviral EC50 Coxsackie virus B4, Visual CPE score
[22] = tested on: Respiratory syncytial virus; assay: microbe, parasite or virus in culture; assay type: cell-based; details: human respiratory syncytial virus, HeLa, read-out: Antiviral EC50 Respiratory syncytial virus, Visual CPE score
[23] = in vitro; details: human; remark: listed apart in the source

Q: What does the source list for `Cc1cn([C@H]2C[C@H](F)[C@@H](CO)O2)c(=O)[nH]c1=O` [alovudine]?
A: EC50 [1]: 5.9 µM; CC50 [2]: > 250 µM

Q: With `Nc1ccn(C[C@@H](CO)OCP(=O)(O)O)c(=O)n1` [cidofovir] as the molecule, how does the EC50 [3] read?
A: 2.4 µM

Q: And the EC50 [4]?
A: 4.7 µM

Q: And the EC50 [5]?
A: 1 µM

Q: And the EC50 [6]?
A: 10 µM

Q: What about the EC50 [1] of the same molecule?
A: 6.4 µM

Q: And the CC50 [2]?
A: > 250 µM

Q: Which EC50 [3] does the source give for `Nc1nc2c(ncn2COCCO)c(=O)[nH]1` [acyclovir] here?
A: 2.4 µM

Q: And the EC50 [5]?
A: 0.05 µM

Q: And the EC50 [6]?
A: > 250 µM

Q: And the CC50 [2]?
A: > 250 µM

Q: Which EC50 ([7]; read-out: Antiviral EC50 A/H1N1 CPE) does the source give for `CN[C@H](CC(C)C)C(=O)N[C@H]1C(=O)N[C@@H](CC(N)=O)C(=O)N[C@H]2C(=O)N[C@H]3C(=O)N[C@H](C(=O)N[C@H](C(=O)O)c4cc(O)cc(O)c4-c4cc3ccc4O)[C@H](O)c3ccc(c(Cl)c3)Oc3cc2cc(c3O[C@@H]2O[C@H](CO)[C@@H](O)[C@H](O)[C@H]2O[C@H]2C[C@](C)(N)[C@H](O)[C@H](C)O2)Oc2ccc(cc2Cl)[C@H]1O` [vancomycin⋅HCl] here?
A: > 100 µM

Q: And the EC50 ([7]; read-out: Antiviral EC50 A/H1N1 MTS)?
A: > 100 µM

Q: What about the EC50 ([8]; read-out: Antiviral EC50 A/H3N2 CPE) of the same molecule?
A: > 100 µM

Q: What about the EC50 ([8]; read-out: Antiviral EC50 A/H3N2 MTS) of the same molecule?
A: > 100 µM

Q: And the EC50 ([9]; read-out: Antiviral EC50 Influenza B CPE)?
A: > 100 µM

Q: What about the EC50 ([9]; read-out: Antiviral EC50 Influenza B MTS) of the same molecule?
A: > 100 µM

Q: What about the “Cytotoxicity MCC (minimum cytotoxic concentration)” value [10] of the same molecule?
A: >100 µM

Q: What about the CC50 [11] of the same molecule?
A: > 100 µM

Q: With `COc1c(C)c2c(c(O)c1C/C=C(\C)CCC(=O)O)C(=O)OC2` [Mycophenolic acid] as the molecule, how does the EC50 ([12]; read-out: Antiviral EC50 Reovirus-1, MTS) read?
A: 4 µM

Q: And the EC50 ([12]; read-out: Antiviral EC50 Reovirus-1, Visual CPE score)?
A: 3.3 µM

Q: What about the EC50 ([13]; read-out: Antiviral EC50 Sindbis virus, MTS) of the same molecule?
A: 4 µM

Q: And the EC50 ([13]; read-out: Antiviral EC50 Sindbis virus, Visual CPE score)?
A: 5.7 µM

Q: What about the EC50 ([14]; read-out: Antiviral EC50 Coxsackie virus B4, MTS) of the same molecule?
A: > 100 µM

Q: What about the EC50 ([14]; read-out: Antiviral EC50 Coxsackie virus B4, Visual CPE score) of the same molecule?
A: > 100 µM

Q: What about the EC50 ([15]; read-out: Antiviral EC50 Punta Toro virus, MTS) of the same molecule?
A: 10.6 µM

Q: And the EC50 ([15]; read-out: Antiviral EC50 Punta Toro virus, Visual CPE score)?
A: > 100 µM

Q: And the EC50 ([16]; read-out: Antiviral EC50 Yellow Fever virus, MTS)?
A: 1.4 µM

Q: And the EC50 ([16]; read-out: Antiviral EC50 Yellow Fever virus, Visual CPE score)?
A: > 100 µM

Q: And the EC50 ([17]; read-out: Antiviral EC50 Zika virus, MTS)?
A: 1.5 µM

Q: What about the EC50 ([17]; read-out: Antiviral EC50 Zika virus, Visual CPE score) of the same molecule?
A: 0.8 µM

Q: And the “Cytotoxicity MCC” value [18]?
A: > 100

Q: What about the CC50 [19] of the same molecule?
A: > 100 µM

Q: With `NC(=O)c1ncn([C@@H]2O[C@H](CO)[C@@H](O)[C@H]2O)n1` [Ribavirin] as the molecule, how does the EC50 [20] read?
A: 87 µM

Q: What about the EC50 [21] of the same molecule?
A: 126 µM

Q: And the EC50 [22]?
A: 5 µM

Q: What about the CC50 [23] of the same molecule?
A: > 250 µM
